Test results published in publication PMC10857328, “Utilization of Biopolymer-Based Lutein Emulsion as an Effective Delivery System to Improve Lutein Bioavailability in Neonatal Rats” (Nutrients, 2024).
Where two headings read alike, the source gives them in different places.

Key:
[1] = encapsulation technique Polymer, Mice, cited from earlier work
[2] = encapsulation technique Nanoparticles, Sprague-Dawley rats, cited from earlier work
[3] = Acute dosing study: serum lutein kinetics, pharmacokinetic parameters and bioavailability; assay type: in vivo, neonatal Sprague-Dawley rats; details: 10 mg/kg body weight of lutein; for Serum lutein concentration: P10 pups
Procedure: To determine the bioavailability of lutein in neonatal Sprague-Dawley rats, an acute dosing study was conducted. The procedure was approved by the Institutional Animal Care and Use Committee of the University of Alabama (Number: 21-08-4864, 23 September 2021). On postnatal day 10 (P10), neonatal rats were randomly selected from litters and received a single dose of either free lutein (i.e., lutein ester dissolved in olive oil) or lutein emulsion, both containing 10 mg/kg body weight of lutein. The dose was administered to the pup’s mouth via a pipette. The concentration of lutein ester in the oil phase was 0.004 g/mL. The lutein dosage was selected based on our pilot study and previous studies. It is higher than the dosage used in human newborns but is considered acceptable and safe to be used in pharmacokinetic studies in rodent models. At 0.5 h, 1 h, 2 h, 4 h, 6 h, 12 h, and 24 h after dosing, pups (n = 3/time point/group) were euthanized, and blood, liver, spleen, brain, and eye were collected. Serum was obtained by centrifuging blood samples and tissues were stored at −80 °C until time of analysis. A group of rat pups (n = 3) not receiving treatments were used to measure the baseline lutein concentrations. Throughout the study, maternal rats consumed a purified diet with no lutein (D19120501, Research Diets Inc, New Brunswick, NJ, USA) (Table 1).
Serum and tissue lutein concentration was determined using an ultra-performance liquid chromatography (UPLC) system (Waters, Milford, MA, USA) equipped with a photo-diode array detector (PDA)/MS/MS, according to our well-established methods with slight modification. As for the serum, 100 μL of the sample was incubated with 2 mL of 100% ethanol at room temperature for an hour for lipid extraction. For the tissues, ~0.1 g of the sample was weighed, homogenized, and incubated with 2 mL of 100% ethanol at room temperature for an hour. An amount of 1 mL of 5% (w/v) potassium hydroxide was added to the sample and incubated in a water bath at 60 °C for 45 min for saponification. Upon saponification, samples were allowed to cool for about 15 min, and then an addition of 4 mL of hexane containing 0.1% butylated hydroxytoluene (w/v) and 2 mL of deionized water was added. The mixture was vortexed for 20 s and centrifuged at 1600 rpm at 25 °C for 15 min. The upper layer was collected following centrifugation and dried under nitrogen at 37 °C. The dried sample was then rinsed twice with hexane, dried, and reconstituted with 100 µL of acetonitrile-methanol. The reconstituted sample was centrifuged for 2 min to remove any possible precipitation. For UPLC analysis, 10 µL of the sample was injected into the Waters Acquity UPLC HSS T3 column. Solvent A was acetonitrile: methanol (50:50, v/v), and solvent B was 100% isopropanol. The mobile phase was made up of solvent A and solvent B in a volume ratio of 95:5 (v/v). The flow rate was set as 0.5 mL/min, and the column temperature was maintained at 35 °C. The detection wavelength was set at 446 nm. Retinyl acetate (Sigma-Aldrich, St. Louis, MO, USA) was used as the internal standard.
Bioavailability is defined as the rate and range of the active compound to the systemic circulation through a single oral administration. It can be evaluated by pharmacokinetic parameters derived from the compound kinetic curve (serum concentration vs. time). In the acute dosing study, pharmacokinetic parameters, including maximum lutein concentration (Cmax), time to reach Cmax (Tmax), and area under the time-concentration curve (AUC0–24) were determined. Cmax and Tmax were read directly from the serum lutein kinetic curve. The area under the time-concentration curve (AUC0–24) was calculated by trapezoid rule with linear interpolation using GraphPad Prism 8.0 (San Diego, CA, USA). […]

Substance: Lutein ester [Free Lutein]
- Tmax (serum) ([1]; ref Arunkumar et al. (2015) [42]): 4 h
- Tmax (serum) ([1]; ref Ranganathan et al. (2019) [57]): 4 h
- Tmax (serum) ([2]; ref Chang et al. (2018) [59]): 3 h
- Tmax (serum) ([2]; ref Liu et al. (2017) [37]): 2 h
- Tmax (serum) ([2]; ref Wu et al. (2019) [54]): 2 h
- Tmax (serum) ([2]; ref Zhang et al. (2015) [58]): 6 ± 2.2 h
- Serum lutein concentration ([3]; 0.5 h after single oral dose): 0.00 ± 0.00 nmol/L
- Serum lutein concentration ([3]; 6 h after single oral dose): 132.91 ± 64.96 nmol/L
- Serum lutein concentration ([3]; 24 h after single oral dose): 43.16 ± 8.53 nmol/L
- Tmax, time to reach Cmax (serum) ([3]; single oral dose): 4 h
- Cmax ([3]; single oral dose, read-out: Cmax, maximum serum lutein concentration): 145 ± 49 nM
- AUC0–24 ([3]; single oral dose, serum): 1987 ± 247.90 nmol/L∗h
